According to US12319694B2, “Heterocyclic nitrogen-containing purine derivatives, pharmaceutical preparations containing these derivatives and their use in neuroprotection” (UNIVERZITA PALACKEHO, priority 2019, dated 2025):
Several values for one entry are separate records, joined by “and”; a condition that tells them apart may be missing. Identical values can stand only once.

Experiments:
Nrf2 = assay: Activation of Nrf2-dependent expression, EpRE-LUX reporter cell line; type: cell-based; settings: 24 h; tested at 100, 10, 1 and 0.1 μM, concentration of the printed value not stated; mean ± SD (n = 3)
Procedure: The ability of compounds to activate Nrf2-dependent expression was determined by EpRE-LUX reporter cell line. In brief, compounds at 100, 10, 1 and 0.1 μM concentrations of the tested compounds were incubated for 24 h with the cells. After cells lysis (10 mM Tris, 2 mM DTT), a buffer containing 0.2 mM luciferin was added to start luminescent reaction. The increase in luminescence was measured with microplate reader Infinite M200 (TECAN). Compounds with Nrf2 value higher than 0 are strong Nrf2 activators and thus will be useful agents for the treatment of neurodegenerative diseases associated with oxidative stress.

[1] = Calcein AM viability test on ATRA-differentiated SH-SY5Y cells; type: cell-based, human; settings: human, ATRA-differentiated SH-SY5Y neuroblastoma cells, DMSO control = 100%, read-out: % of viability, relative to control; for viability at 24 h, 0.1 µM: 0.1 μM compound; for viability at 24 h, 1 µM: 1 μM compound; for viability at 24 h, 10 µM: 10 μM compound
Procedure: (§1) The SH-SY5Y human neuroblastoma cell line obtained as kind gift from Walter d'Acunto (originally purchased from ATCC—American Type Culture Collection (Manassas, VA, USA) was cultivated in Dulbecco's modified Eagle's Medium and Ham's F12 Nutrient Mixture (DMEM:F-12, 1:1), supplemented with 10% fetal bovine serum (FBS) and 1% penicillin and streptomycin at 37° C. in a humidified atmosphere 5% CO2, 95% air in passage limit up to ATCC+15. The assay was performed in 96-well microplate with 7000 SH-SY5Y cells per well. Next day, SH-SY5Y underwent all-trans retinoic acid (ATRA)-differentiation for 48 h (ATRA 10 μM). After 48 h, old DMEM/F12 media was removed by fresh media containing tested compounds at 0.1, 1 and 10 μM concentrations for 24 h. The tested compounds were dissolved in DMSO were added into the medium. The maximum concentration of DMSO in media was kept below 0.1% (v/v). The cell viability was measured by Calcein AM (1 mg/ml ThermoFisher) viability assay. Solution of Calcein AM in PBS (0.5 uM) was pipetted to cells and incubated for 50 minutes. After that the fluorescence was measured at 488/517 nm (excitation/emission) using microplate reader Infinite M200 (TECAN). Calcein AM assay is based on the dye-intracellular-esterase cleavage of non-fluorescent dye (Calcein AM) by living cells to fluorescent dye (Calcein), while dyeing cells that lose such ability. The values in Table 4 show % of viability, relative to control of all tested compounds. The control (medium with DMSO, <0.1% (v/v)) was postulated as 100% viability (see the first line of the table).

[2] = test system: SH-SY5Y human neuroblastoma cell line; assay: Oxidative stress measurement (dihydroethidium, superoxide) in SH-SY5Y, salsolinol-induced model of PD; type: cell-based; settings: 6 h; for activity at 1 µM: 1 μM compound with SAL 500 μM; for activity at 1 µM / activity at 10 µM: read-out: Oxidative stress (% of control)
Procedure: The assay was performed in 96-well microplate with 7000 cells/well. Next day, SH-SY5Y underwent differentiation protocol for 48 h see above. Treatment procedure remained the same as in previous section (Cell treatment and viability/cytotoxicity assays). Additionally, oxidative stress (OS) inducers such as 6-hydroxydopamine (6-OHDA) and glutamate (Glu) alone were used as […]. Negative controls determined threshold of excessive OS. […] After 30 minutes, DHE was read at 500 nm/580 nm (excitation/emission). DHE is cell permeable dye which is selective toward superoxide radical detection.

[3] = Radical scavenging activity by ORAC assay; settings: NAUC relative to trolox; mean ± SD (n = 3)
Procedure: The ability of compounds to scavenge free radicals in vitro was determined by Oxygen Radical Absorbance Capacity (ORAC) method. In brief, fluorescein (100 μL, […]) and 25 μL of tested compound solution were added into each working well in a 96-well microplate preincubated at 37° C. Thereafter, 25 μL of 250 mM 2,2′-azobis(2-amidino-propan)dihydrochloride (AAPH) was quickly added, microplate was shaken for 5 s and the fluorescence (Ex. 485 nm, Em. 510 nm) was read every 3 min over 90 min by using microplate reader Infinite 200 (TECAN, Switzerland). The NAUC value (Net Area Under Curve) was used to express antioxidant activity relative to trolox (hydrophilic equivalent of vitamin E postulated as a standard). Substances with an ORAC value greater than 0 actively trap free radicals.

[4] = test system: SH-SY5Y human neuroblastoma cell line (differentiated phenotype); assay: Viability test, salsolinol-induced model of Parkinson's disease in differentiated SH-SY5Y (Calcein AM); type: cell-based; settings: 24 h
Procedure: as §1
Similarly, to the previous test the assay was performed in 96-well microplates with 7000 SH-SY5Y cells per well. Day after the seeding of cells, SH-SY5Y underwent all-trans retinoic acid (ATRA)-differentiation for 48 h (ATRA 10 μM). After 48 h, old DMEM/F12 media was removed by fresh media containing 500 μM dopaminergic neurotoxin Salsolinol (SAL) without or with tested compounds at 0.1, 1 and 10 μM concentrations. […] After 24 h the cell viability was measured by Calcein AM viability assay.

[5] = Homo sapiens, SH-SY5Y, 10 μM compound with SAL 500 μM
[6] = 0.1 μM compound with 500 μM Salsolinol
[7] = 1 μM compound with 500 μM Salsolinol
[8] = 10 μM compound with 500 μM Salsolinol

Compound	Nrf2 (relative luminiscence) (Nrf2)	viability at 24 h, 0.1 µM [1] [%]	viability at 24 h, 1 µM [1] [%]	viability at 24 h, 10 µM [1] [%]	activity at 1 µM ([2]; Homo sapiens, SH-SY5Y) [%]	activity at 10 µM [2, 5] [%]	ORAC (compound/trolox) [3] [compound/trolox]	Neuroprotective effect (% of control) [4, 6]	Neuroprotective effect (% of control) [4, 7]	Neuroprotective effect (% of control) [4, 8]	Oxidative stress (% of control) ([2]; Glu 160 mM alone (negative control))	reduction of oxidative stress induced by Salsolinol (in words) ([2]; SAL 500 μM, compounds 1 and 10 μM)	activity at 30 µM ([2]; Homo sapiens, SH-SY5Y, 6-OHDA 30 μM alone (negative control)) [%]	Oxidative stress (% of control) ([2]; 10 μM compound with SAL 500 μM)	Oxidative stress (% of control) ([2]; Salsolinol 500 μM alone, DMSO control = 100%)	decrease in percentages of alive cells ([4]; 500 μM Salsolinol alone) [%]
c1ccc(Cn2cnc3c(N4CCOCC4)nc(N4CCOCC4)nc32)cc1 [Compound 4, 2,6-dimorpholino-9-benzylpurine]	0.19 ± 0.02	106	113	146	106	155	0.007 ± 0.002	1.70 % of control	8.11 % of control	21.12 % of control						
COc1cc2c(cc1OC)C(=O)C(CC1CCN(Cc3ccccc3)CC1)C2 (stereo not drawn) [Donepezil, reference compound]								2.76 % of control	6.73 % of control	14.25 % of control						
N[C@@H](CCC(=O)O)C(=O)O [Glu, glutamate, reference compound]											268.62 % of control					
c1ccc(Cn2cnc3c(N4CCCC4)nc(N4CCCCC4)nc32)cc1 [Compound 77, 9-Benzyl-2-(piperidin-1-yl)-6-(pyrrolidin-1-yl)-9H-purine]	0.16 ± 0.04	107	118	117	118	127	0.028 ± 0.001	4.64 % of control	12.11 % of control	13.8 % of control						
Nc1nc(NCCc2ccc(O)cc2)nc2nc(-c3ccco3)nn12 [ZM241385, reference compound]						102		1.95 % of control	7.03 % of control	9.31 % of control						
Oc1cccc(Cn2cnc3c(N4CCCC4)nc(N4CCCC4)nc32)c1 [Compound 26, 9-(3-Hydroxybenzyl)-2,6-di(pyrrolidin-1-yl)-9H-purine]	0.33 ± 0.06	108	120	142	107	142	0.126 ± 0.018	4.90 % of control	14.43 % of control	20.71 % of control						
c1ccc(Cn2cnc3c(N4CCSCC4)nc(N4CCSCC4)nc32)cc1 [Compound 5, 9-benzyl-2,6-dithiomorpholino-9H-purine]	0.17 ± 0.06	106	126	129	121	135	0.016 ± 0.001	7.03 % of control		19.89 % of control		highest potency toward the reduction of oxidative stress				
NCCc1cc(O)c(O)cc1O [Compound 6-OHDA, 6-hydroxydopamine, reference compound]													215			
c1ccc(Cn2cnc3c(N4CCCCC4)nc(N4CCCC4)nc32)cc1 [Compound 78, 9-Benzyl-6-(piperidin-1-yl)-2-(pyrrolidin-1-yl)-9H-purine]	0.23 ± 0.03	106	120	134	136	238	0.071 ± 0.005	N/A (N/A = no protection)	17.95 % of control	N/A (N/A = no protection)				OS level reaching threshold of negative controls		
Clc1cccc(Cl)c1Cn1cnc2c(N3CCCC3)nc(N3CCCC3)nc21 [Compound 74, 9-(2,6-Dichlorobenzyl)-2,6-di(pyrrolidine-1-yl)-9H-purine]	0.38 ± 0.08	111	138	152	126	179		8.57 % of control	20.24 % of control	22.35 % of control						
CC(=O)N(O)CCCCCNC(=O)CCC(=O)N(O)CCCCCNC(=O)CCC(=O)N(O)CCCCCN [Deferoxamine, reference compound]						101		1.43 % of control	4.86 % of control	10.52 % of control						
C[C@@H]1NCCc2cc(O)c(O)cc21 [Salsolinol, reference compound]															335.4 % of control and 335.36 % of control	30.7
